According to patent US20240277658A1, “NLRP3 ACTIVATORS FOR USE IN THE TREATMENT OF INFECTIOUS DISEASES OR CANCER BY ACTIVATING NLRP3 INFLAMMASOME” (ALBERT-LUDWIGS-UNIVERSITÄT FREIBURG, priority 2020, published 2024):
“And” between values parts separate entries of the source, which are not always exact repeats. Identical values can stand only once. Like-named read-outs stand apart in the source and are kept apart here.

What was measured:
[1] = tested on: BMDCs; experiment: LDH release (lytic cell death, pyroptosis) from LPS-primed BMDCs; type: cell-based, mouse; details: for Average (% positive control): LDH release; for cytotoxicity at 20 µM / cytotoxicity at 40 µM / cytotoxicity at 80 µM / cytotoxicity at 50 µM: Mus musculus, BMDC; for cytotoxicity at 50 µM: LPS-primed BMDCs
Method: (§1) This was tested in cell culture in several different in vitro assays classically used to investigate inflammasome activation. These include measuring inflammasome-dependent lytic cell death (pyroptosis) by detecting release of the cytosolic enzyme lactate dehydrogenase (LDH) using a commercial colorimetric assay and release of proinflammatory cytokines like IL-1β by enzyme-linked immunosorbent assay (ELISA), analyzing cleavage and activation of caspase-1 and IL-1β by immunoblotting and immunofluorescence imaging of ASC speck formation. Lytic cell death was determined via LDH release. Assay results for compounds are illustrated in the Tables below, wherein the concentration of the compounds tested had been 50 μM or as indicated in the table, and the concentration of the known activators has been tested with 5 μM of nigericin, 100 μM of each R837 and CL097. For classification of the activity of a given molecule, release of IL-1β was quantified as % of IL-1% of a respective control activator used for the experiment (highlighted in tables with bold letters). The compounds listes in Table 1 were classified into 4 groups depending on their ability to induce the NLRP3 inflammasome activation, assessed by % IL-1β release as compared to the positive control.
(§2) Mouse bone marrow-derived dendritic cells (BMDCs) were isolated from femurs and tibias previously described (Gross, Olaf, 2012, “Measuring the inflammasome”, Methods in molecular biology, Clifton, N.J., 844, pp. 199-222.). In brief, tibias and femurs were carefully removed and put to sterile 70% ethanol for 1 minute. Using a 22-G needle attached to a 20 ml-syringe filled with sterile flushing medium, the bone marrow was pressed through the mesh of a […] cell strainer. The cells were spun down by centrifugation at 400×g, 4° C. for 5 minutes and red blood cells lysed by resuspension and incubation for 5 minutes at room temperature in RBC lysis buffer. 9 ml of flushing medium were added and cells were again spun down by centrifugation at 400×g, 4° C. for 5 minutes. Cells were then resuspended in BMDC medium (RPMI, 10% fetal bovine serum, 1% penicillin-streptomycin100 U/ml, 20 ng/ml recombinant murine GM-CSF), counted and plated at a density of 0.5×10^6 cells ml^−1 in 10 ml medium and incubated at 37° C., 5% CO2 in a humidified incubator. After 2 days, 10 ml of fresh medium were added to the cells and after 4 days, the medium was fully exchanged to 20 ml of fresh medium. The cells were allowed to differentiate for 6 to 8 days before usage.
(§3) For canonical inflammasome activation BMDCs after 7-9 days of differentiation were harvested and counted with a Neubauer Chamber (Hecht Assistant) and the concentration was set to 1 Mio cells ml^−1. 100 μl cell suspension per well were seeded in 96-well plates. The cells were primed with 50 ng ml^−1 E. coli K12 ultra-pure LPS for 3 hours and subsequently treated with canonical inflammasome activators or experimental compounds for 3 hours if not indicated differently (incubation time FIG. 4D, 5, 7, 8, 11, 13-18: 3 h, FIG. 12: 4 h). Concentrations of the stimuli were as follows if not indicated differently: 5 μM nigericin, 100 μM imiquimod (also known as R837), 100 μM CL097, 100 μM R848, […] poly(dA:dT), 300 μg ml^−1 MSU. If an inhibitor was used before stimuli treatment, the inhibitor was added after 2.5 hours of priming and it was incubated for 30 minutes before inflammasome activation. Inhibitors were used as follows: 3 μM MCC950, 45 mM KCl, 30 μM ebselen (2-Phenyl-1,2-benzoselenazol-3-one), 5 μM cytochalasin D (see FIGS. 8, 11, 12 and 17).
(§4) All inflammasome stimulations were performed in three technical replicates for each condition. […]

[2] = molecular target: T1, NLRP3 inflammasome (Mus musculus, UniProt Q8R4B8); experiment: IL-1β release from LPS-primed BMDCs (ELISA) as readout of NLRP3 inflammasome activation; type: cell-based
T1 construct: endogenous in cells; host or cells: primary mouse bone marrow-derived dendritic cells (BMDCs), LPS-primed
Method: as §1, §2, §3, §4

[3] = 20 μM, positive control EN22 20 μM
[4] = 40 μM, positive control EN22 20 μM
[5] = 80 μM, positive control EN22 20 μM
[6] = 20 μM, individual replicate values, read-out: LDH release (% of max.)
[7] = 20 μM, read-out: Average LDH release (% of max.)
[8] = 40 μM, individual replicate values, read-out: LDH release (% of max.)
[9] = 40 μM, read-out: Average LDH release (% of max.)
[10] = 80 μM, individual replicate values, read-out: LDH release (% of max.)
[11] = 80 μM, read-out: Average LDH release (% of max.)
[12] = 20 μM, individual replicate values
[13] = 40 μM, individual replicate values
[14] = 80 μM, individual replicate values
[15] = IL-1β, 20 μM, positive control EN22
[16] = IL-1β, 40 μM, positive control EN22
[17] = IL-1β, 80 μM, positive control EN22
[18] = compound 50 μM, positive control nigericin 5 μM
[19] = compound 50 μM, read-out: Average LDH release (% of max.)
[20] = single replicates, compound 50 μM, read-out: LDH release (% of max.)
[21] = IL-1β release, compound 50 μM, positive control nigericin 5 μM
[22] = compound 50 μM, LPS-primed BMDCs
[23] = single replicates, compound 50 μM, LPS-primed BMDCs

T1 sequence (Q8R4B8 whole entry): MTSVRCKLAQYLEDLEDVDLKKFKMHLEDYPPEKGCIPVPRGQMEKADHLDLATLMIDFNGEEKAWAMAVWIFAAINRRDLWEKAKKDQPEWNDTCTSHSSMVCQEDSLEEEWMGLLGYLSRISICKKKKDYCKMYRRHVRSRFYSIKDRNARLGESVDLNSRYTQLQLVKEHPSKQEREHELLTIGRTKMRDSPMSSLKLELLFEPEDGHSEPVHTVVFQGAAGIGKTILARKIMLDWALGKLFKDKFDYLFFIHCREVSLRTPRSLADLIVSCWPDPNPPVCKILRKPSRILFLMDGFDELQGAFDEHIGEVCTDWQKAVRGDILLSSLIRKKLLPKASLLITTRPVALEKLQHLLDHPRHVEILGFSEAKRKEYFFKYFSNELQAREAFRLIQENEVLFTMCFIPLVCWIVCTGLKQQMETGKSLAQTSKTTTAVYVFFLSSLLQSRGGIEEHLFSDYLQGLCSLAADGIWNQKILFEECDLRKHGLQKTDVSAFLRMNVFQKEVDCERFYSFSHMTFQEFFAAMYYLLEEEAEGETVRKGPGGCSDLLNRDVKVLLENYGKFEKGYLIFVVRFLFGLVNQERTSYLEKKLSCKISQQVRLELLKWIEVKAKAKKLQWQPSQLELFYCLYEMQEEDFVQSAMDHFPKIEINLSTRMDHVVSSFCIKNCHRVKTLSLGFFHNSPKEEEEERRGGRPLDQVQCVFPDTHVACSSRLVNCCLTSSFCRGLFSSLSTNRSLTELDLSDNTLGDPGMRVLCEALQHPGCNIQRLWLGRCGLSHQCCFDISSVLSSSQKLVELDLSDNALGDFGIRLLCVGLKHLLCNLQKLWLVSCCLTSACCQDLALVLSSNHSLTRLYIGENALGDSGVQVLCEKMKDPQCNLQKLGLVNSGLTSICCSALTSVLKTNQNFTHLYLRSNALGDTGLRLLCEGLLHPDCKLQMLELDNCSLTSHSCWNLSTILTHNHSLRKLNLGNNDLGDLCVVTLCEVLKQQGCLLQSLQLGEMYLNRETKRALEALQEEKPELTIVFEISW

O=C(Nc1ccccc1)Nc1ccc2ncccc2n1 [JB002, 1-(1,5-naphthyridin-2-yl)-3-phenylurea]
Average (% positive control) [1, 3]: 13.887 % positive control
Average (% positive control) [1, 4]: 17.760 % positive control
Average (% positive control) [1, 5]: 30.084 % positive control
cytotoxicity at 20 µM [1, 6]: 7.72%
cytotoxicity at 20 µM [1, 7]: 7.4%
cytotoxicity at 40 µM [1, 8]: 9.38%
cytotoxicity at 40 µM [1, 9]: 9.46%
cytotoxicity at 80 µM [1, 10]: 14%
cytotoxicity at 80 µM [1, 11]: 16%
Average IL-1β ([2]; 20 μM): 0.045 ng/mL
IL-1β [2, 12]: 0.038 ng/mL and 0.050 ng/mL and 0.047 ng/mL
Average IL-1β ([2]; 40 μM): 0.192 ng/mL
IL-1β [2, 13]: 0.190 ng/mL and 0.197 ng/mL and 0.1902 ng/mL
Average IL-1β ([2]; 80 μM): 0.503 ng/mL
IL-1β [2, 14]: 0.464 ng/mL and 0.505 ng/mL and 0.540 ng/mL
Average (% positive control) [2, 15]: 2.292 % positive control
Average (% positive control) [2, 16]: 9.827 % positive control
Average (% positive control) [2, 17]: 25.697 % positive control

O=C(Nc1ccccc1)Nc1ccc2ncc(Br)cc2c1 [JB004, 1-(3-bromoquinolin-6-yl)-3-phenylurea]
Average (% positive control) [1, 3]: 39.589 % positive control
Average (% positive control) [1, 4]: 51.749 % positive control
Average (% positive control) [1, 5]: 68.244 % positive control
cytotoxicity at 20 µM [1, 6]: 31%
cytotoxicity at 20 µM [1, 7]: 21.1%
cytotoxicity at 40 µM [1, 8]: 25.6%
cytotoxicity at 40 µM [1, 9]: 27.6%
cytotoxicity at 80 µM [1, 10]: 34.3%
cytotoxicity at 80 µM [1, 11]: 36.4%
Average IL-1β ([2]; 20 μM): 0.971 ng/mL
IL-1β [2, 12]: 0.966 ng/mL and 0.765 ng/mL and 1.182 ng/mL
Average IL-1β ([2]; 40 μM): 1.507 ng/mL
IL-1β [2, 13]: 1.350 ng/mL and 1.479 ng/mL and 1.691 ng/mL
Average IL-1β ([2]; 80 μM): 1.657 ng/mL
IL-1β [2, 14]: 1.684 ng/mL and 1.413 ng/mL and 1.876 ng/mL
Average (% positive control) [2, 15]: 49.601 % positive control
Average (% positive control) [2, 16]: 76.971 % positive control
Average (% positive control) [2, 17]: 84.675 % positive control

N#Cc1ccc(NC(=O)Nc2ccc3ncccc3c2)cc1 [JB011, 1-(4-cyanophenyl)-3-(quinolin-6-yl)urea]
Average (% positive control) [1, 3]: 21.883 % positive control
Average (% positive control) [1, 4]: 24.799 % positive control
Average (% positive control) [1, 5]: 31.296 % positive control
cytotoxicity at 20 µM [1, 6]: 11.5%
cytotoxicity at 20 µM [1, 7]: 11.7%
cytotoxicity at 40 µM [1, 8]: 12.6%
cytotoxicity at 40 µM [1, 9]: 13.2%
cytotoxicity at 80 µM [1, 10]: 16.4%
cytotoxicity at 80 µM [1, 11]: 16.7%
Average IL-1β ([2]; 20 μM): 0.576 ng/mL
IL-1β [2, 12]: 0.562 ng/mL and 0.612 ng/mL and 0.553 ng/mL
Average IL-1β ([2]; 40 μM): 0.604 ng/mL
IL-1β [2, 13]: 0.538 ng/mL and 0.564 ng/mL and 0.711 ng/mL
Average IL-1β ([2]; 80 μM): 0.752 ng/mL
IL-1β [2, 14]: 0.912 ng/mL and 0.737 ng/mL and 0.607 ng/mL
Average (% positive control) [2, 15]: 29.413 % positive control
Average (% positive control) [2, 16]: 30.877 % positive control
Average (% positive control) [2, 17]: 38.413 % positive control

N#CCOc1ccc(NC(=O)Nc2ccccc2)cc1 [L01.002, 1-[4-(cyanomethoxy)-phenyl]-3-phenylurea]
Average (% positive control) [1, 18]: 13.662 % positive control
cytotoxicity at 50 µM [1, 19]: 9.99%
cytotoxicity at 50 µM [1, 20]: 8.07%
Average (% positive control) [2, 21]: 2.590 % positive control
Average IL-1β [2, 22]: 0.186 ng/mL
IL-1β [2, 23]: 0.144 ng/mL and 0.249 ng/mL and 0.164 ng/mL

CC(C)=CC(=O)Nc1cccc(NC(=O)Nc2ccccc2)c1 [L01.003, 3-methyl-N-{3-[(phen-ylcarbamoyl)amino]-phenyl}but-2-enamide]
Average (% positive control) [1, 18]: 10.676 % positive control
cytotoxicity at 50 µM [1, 19]: 7.81%
cytotoxicity at 50 µM [1, 20]: 6.28%
Average (% positive control) [2, 21]: 2.301 % positive control
Average IL-1β [2, 22]: 0.165 ng/mL
IL-1β [2, 23]: 0.167 ng/mL and 0.153 ng/mL and 0.175 ng/mL

O=C(Nc1ccccc1)Nc1ccc(N2CCCC2)cc1 [L01.004, 3-phenyl-1-[4-(pyrrol-idin-1-yl)phenyl]urea]
Average (% positive control) [1, 18]: 23.074 % positive control
cytotoxicity at 50 µM [1, 19]: 16.9%
cytotoxicity at 50 µM [1, 20]: 15.2%
Average (% positive control) [2, 21]: 19.737 % positive control
Average IL-1β [2, 22]: 1.415 ng/mL
IL-1β [2, 23]: 1.192 ng/mL and 1.485 ng/mL and 1.567 ng/mL

CC(C)C(NC(=O)Nc1cccc(C(F)(F)F)c1)c1nc(-c2cccnc2)no1 (stereo not drawn) [L01.005, 3-{2-methyl-1-[3-(pyridin-3-yl)-1,2,4-oxadiazol-5-yl]propyl}-1-[3-(trifluoromethyl)-phenyl]urea]
Average (% positive control) [1, 18]: 20.238 % positive control
cytotoxicity at 50 µM [1, 19]: 14.8%
cytotoxicity at 50 µM [1, 20]: 9.31%
Average (% positive control) [2, 21]: 0.980 % positive control
Average IL-1β [2, 22]: 0.070 ng/mL
IL-1β [2, 23]: 0.053 ng/mL and 0.074 ng/mL and 0.084 ng/mL

COc1ccc(F)cc1NC(=O)NC(c1nc(-c2cccnc2)no1)C(C)C (stereo not drawn) [L01.007, 1-(5-fluoro-2-methoxy-phenyl)-3-{2-methyl-1-[3-(pyridin-3-yl)-1,2,4-oxadiazol-5-yl]propyl}-urea]
Average (% positive control) [1, 18]: 27.756 % positive control
cytotoxicity at 50 µM [1, 19]: 20.3%
cytotoxicity at 50 µM [1, 20]: 17.8%
Average (% positive control) [2, 21]: 16.422 % positive control
Average IL-1β [2, 22]: 1.177 ng/mL
IL-1β [2, 23]: 0.859 ng/mL and 1.572 ng/mL and 1.101 ng/mL

O=C(Nc1ccccc1)Nc1ccc(C(=O)N2CCC2)cc1 [L01.008, 1-[4-(azetidine-1-carbon-yl)phenyl]-3-phenylurea]
Average (% positive control) [1, 18]: 13.046 % positive control
cytotoxicity at 50 µM [1, 19]: 9.54%
cytotoxicity at 50 µM [1, 20]: 11%
Average (% positive control) [2, 21]: 4.638 % positive control
Average IL-1β [2, 22]: 0.332 ng/mL
IL-1β [2, 23]: 0.361 ng/mL and 0.324 ng/mL and 0.313 ng/mL
